Experimental data from patent US10787442B2, “Modulators of indoleamine 2,3-dioxygenase” (GLAXOSMITHKLINE INTELLECTUAL PROPERTY DEVELOPMENT LIMITED, priority 2016, dated 2020).

System: human peripheral blood mononuclear cells (PBMC)
Assay: PBMC cytotoxicity assay (CellTiter-Glo)
Type: cell-based
Conditions: cytotoxicity in stimulated PBMC, recorded as pCC50
Protocol: Compounds of the present invention were tested via high-throughput cellular assays utilizing detection of kynurenine via mass spectrometry and cytotoxicity as end-points. […] Compounds with IDO1 inhibitory properties decreased the amount of kynurenine produced by the cells via the tryptophan catabolic pathway. Cellular toxicity due to the effect of compound treatment was measured using CellTiter-Glo® reagent (CTG) (Promega Corporation, Madison, Wis.), which is based on luminescent detection of ATP, an indicator of metabolically active cells.
In preparation for the assays, test compounds were serially diluted 3-fold in DMSO from a typical top concentration of 1 mM or 5 mM and plated at 0.5 μL in 384-well, polystyrene, clear bottom, tissue culture treated plates with lids (Greiner Bio-One, Kremsmünster, Austria) to generate 11-point dose response curves. Low control wells (0% kynurenine or 100% cytotoxicity) contained either 0.5 μL of DMSO in the presence of unstimulated (−IFN-γ/−LPS) PBMCs for the mass spectrometry assay or 0.5 μL of DMSO in the absence of cells for the cytotoxicity assay, and high control wells (100% kynurenine or 0% cytotoxicity) contained 0.5 μL of DMSO in the presence of stimulated (+IFN-γ/+LPS) PBMCs for both the mass spectrometry and cytotoxicity assays.
Frozen stocks of PBMCs were washed and recovered in RPMI 1640 medium (Thermo Fisher Scientific, Inc., Waltham, Mass.) supplemented with 10% v/v heat-inactivated fetal bovine serum (FBS) (Thermo Fisher Scientific, Inc., Waltham, Mass.), and 1× penicillin-streptomycin antibiotic solution (Thermo Fisher Scientific, Inc., Waltham, Mass.). The cells were diluted to 1,000,000 cells/mL in the supplemented RPMI 1640 medium. 50 μL of either the cell suspension, for the mass spectrometry assay, or medium alone, for the cytotoxicity assay, were added to the low control wells, on the previously prepared 384-well compound plates, resulting in 50,000 cells/well or 0 cells/well respectively. IFN-γ and LPS were added to the remaining cell suspension at final concentrations of 100 ng/ml and 50 ng/ml respectively, and 50 μL of the stimulated cells were added to all remaining wells on the 384-well compound plates. The plates, with lids, were then placed in a 37° C., 5% CO2 humidified incubator for 2 days.
Following incubation, the 384-well plates were removed from the incubator and allowed to equilibrate to room temperature for 30 minutes. For the cytotoxicity assay, CellTiter-Glo® was prepared according to the manufacturer's instructions, and 40 μL were added to each plate well. After a twenty minute incubation at room temperature, luminescence was read on an EnVision® Multilabel Reader (PerkinElmer Inc., Waltham, Mass.). For the mass spectrometry assay, 10 μL of supernatant from each well of the compound-treated plates were added to 40 μL of acetonitrile, containing 10 μM of an internal standard for normalization, in 384-well, polypropylene, V-bottom plates (Greiner Bio-One, Kremsmünster, Austria) to extract the organic analytes. Following centrifugation at 2000 rpm for 10 minutes, 10 μL from each well of the acetonitrile extraction plates were added to 90 μL of sterile, distilled H2O in 384-well, polypropylene, V-bottom plates for analysis of kynurenine and the internal standard on the RapidFire 300 (Agilent Technologies, Santa Clara, Calif.) and 4000 QTRAP MS (SCIEX, Framingham, Mass.). MS data were integrated using Agilent Technologies' RapidFire Integrator software, and data were normalized for analysis as a ratio of kynurenine to the internal standard.

| SMILES | PBMC_TOX PXC50 |
| --- | --- |
| COCc1nnc(Nc2cc([C@H](C)CC(=O)O)cnc2N(CC(C)C)C2CCOCC2)s1 [Example 49, (3R)-3-(5-{[5-(methoxymethyl)-1,3,4-thiadiazol-2-yl]amino}-6-[(2-methylpropyl)(oxan-4-yl)amino]pyridin-3-yl)butanoic acid] | <5.0 |
| CC(C)CN(c1ncc([C@H](C)CC(=O)O)cc1Nc1nc(Cl)ns1)C1CCCCC1 [Example 12, (R)-3-(5-((3-chloro-1,2,4-thiadiazol-5-yl)amino)-6-(cyclohexyl(isobutyl)amino)pyridin-3-yl)butanoic acid] | <5.0 |
| CC(C)CN(c1ncc([C@H](C)CC(=O)NO)cc1Nc1ccc(Cl)cn1)C1CCOCC1 [Example 78, (3R)-3-{5-[(5-chloropyridin-2-yl)amino]-6-[(2-methylpropyl)(oxan-4-yl)amino]pyridin-3-yl}-N-hydroxybutanamide] | <5.0 |
| CC(C)CN(c1ncc([C@H](C)CC(=O)NS(=O)(=O)N(C)C)cc1Nc1ccc(Cl)cn1)C1CCOCC1 [Example 80, (3R)-3-{5-[(5-chloropyridin-2-yl)amino]-6-[(2-methylpropyl)(oxan-4-yl)amino]pyridin-3-yl}-N-(dimethylsulfamoyl)butanamide] | <5.0 |
| CC(C)CN(c1ncc([C@H](C)CC(=O)O)cc1Nc1ccc(C#N)nc1)C1CCOCC1 [Example 62, (3R)-3-{5-[(6-cyanopyridin-3-yl)amino]-6-[(2-methylpropyl)(oxan-4-yl)amino]pyridin-3-yl}butanoic acid] | <5.0 |
| CC(C)CN(CC(C)C)c1ncc([C@H](C)CC(=O)O)cc1Nc1nnc(C(F)(F)F)s1 [Example 51, (3R)-3-{6-[bis(2-methylpropyl)amino]-5-{[5-(trifluoromethyl)-1,3,4-thiadiazol-2-yl]amino}pyridin-3-yl}butanoic acid] | <5.0 |
| Cc1ccc(CC(=O)Nc2cc([C@H](C)CC(=O)O)cnc2N(CC(C)C)C2CC3(C2)CN(C(=O)OC(C)(C)C)C3)cc1 [Example 55, (3R)-3-[6-({2-[(tert-butoxy)carbonyl]-2-azaspiro[3.3]heptan-6-yl}(2-methylpropyl)amino)-5-[2-(4-methylphenyl)acetamido]pyridin-3-yl]butanoic acid] | <5.0 |
| CC(C)CN(c1ncc([C@H](C)CC(=O)O)cc1Nc1n[nH]c(C(N)=O)n1)C1CCOCC1 [Example 44, (3R)-3-{5-[(5-carbamoyl-1H-1,2,4-triazol-3-yl)amino]-6-[(2-methylpropyl)(oxan-4-yl)amino]pyridin-3-yl}butanoic acid] | <5.0 |
| Cc1nsc(Nc2cc([C@H](C)CC(=O)O)cnc2N(CC(C)C)C2CCCCC2)n1 [Example 16, (R)-3-(6-(cyclohexyl(isobutyl)amino)-5-((3-methyl-1,2,4-thiadiazol-5-yl)amino)pyridin-3-yl)butanoic acid] | <5.2 |
| CC(C)CN(c1ncc([C@H](C)CC(=O)O)cc1Nc1ccc(Cl)nc1)C1CCC(F)(F)CC1 [Example 17, (R)-3-(5-((6-chloropyridin-3-yl)amino)-6-((4,4-difluorocyclohexyl)(isobutyl)amino)pyridin-3-yl)butanoic acid] | <5.0 |
| CO[C@H]1CC[C@@H](N(CC(C)C)c2ncc([C@H](C)CC(=O)O)cc2Nc2ccc(Cl)cn2)CC1 [Example 24, (R)-3-(5-((5-chloropyridin-2-yl)amino)-6-(isobutyl((1s,4S)-4-methoxycyclohexyl)amino)pyridin-3-yl)butanoic acid] | <5.0 |
| CC(C)CN(c1ncc(C(C)CC(=O)O)cc1Nc1nc(C(F)(F)F)ns1)C1CCC(O)CC1 (stereo not drawn) [Example 59, (3RS)-3-{6-[(2-methylpropyl)[(1rs&,4rs&)-4-hydroxycyclohexyl]amino]-5-{[3-(trifluoromethyl)-1,2,4-thiadiazol-5-yl]amino}pyridin-3-yl}butanoic acid] | <5.0 |
